In patent publication US8309685B2 (Celgene Avilomics Research, Inc., priority 2007, dated 2012):

What was measured:
[1] = biological target: T1, D168A mutant of the HCV NS3/4A 1b protease enzyme (Hepatitis C virus genotype 1b, UniProt P26663, D1194A); assay: HCV Protease FRET Assay (IC50_APP), D168A mutant; assay type: biochemical; conditions: apparent IC50, D168A mutant; read-out: IC50_APP, HCV D168A
T1 construct: 10× stocks of NS3/4A protease enzyme from Bioenza (Mountain View, Calif.); purchased Bioenza (Mountain View, Calif.)

[2] = biological target: T2, wild type HCV NS3/4A 1b protease enzyme (Hepatitis C virus genotype 1b, UniProt P26663); assay: HCV Protease FRET Assay (IC50_APP), wild type; assay type: biochemical; conditions: read-out: IC50_APP, WT; apparent IC50, wild type NS3/4A 1b
T2 construct: 10× stocks of NS3/4A protease enzyme from Bioenza (Mountain View, Calif.); purchased Bioenza (Mountain View, Calif.)

[3] = biological target: T3, C159S mutant of the HCV NS3/4A 1b protease enzyme (Hepatitis C virus genotype 1b, UniProt P26663, C1185S); assay: HCV Protease FRET Assay (IC50_APP), C159S mutant; assay type: biochemical; conditions: apparent IC50, C159S mutant
T3 construct: 10× stocks of NS3/4A protease enzyme from Bioenza (Mountain View, Calif.); purchased Bioenza (Mountain View, Calif.)
Protocol: (§1) HCV Protease FRET Assay for WT and Mutated NS3/4A 1b Enzymes (IC50—APP).
(§2) The following protocol was used to generate “apparent” IC50 (IC50—APP) values as depicted in Table 6, below. […] 5 μL of each enzyme were added to Corning (#3575) 384-well, black, microtiter plates (Corning, N.Y.) after spotting a 0.5 μL volume of 50% DMSO and serially diluted compounds prepared in 50% DMSO. Protease reactions were immediately started after enzyme addition with the addition of 45 μL of the FRET substrate and monitored for 60-90 minutes at λex485/λem520 in a Synergy^4 plate reader from BioTek (Winooski, Vt.). At the conclusion of each assay, progress curves from each well were examined for linear reaction kinetics and fit statistics (R^2, 95% confidence intervals, absolute sum of squares).
(§3) The compound numbers correspond to the compound numbers in Table 3. […] ;

[4] = system: HCV RNA replicon in cell line ET (luc-ubi-neo/ET), human Huh7 hepatoma; assay: Luciferase Assay (Example 35), replicon-derived luciferase activity; assay type: cell-based; conditions: Hepatitis C virus, Huh-7; assay described in Example 35
Protocol: The compounds were assayed to evaluate the antiviral activity and cytotoxicity of compounds using replicon-derived luciferase activity. This assay used the cell line ET (luc-ubi-neo/ET), which is a human Huh7 hepatoma cell line that contains an HCV RNA replicon with a stable luciferase (Luc) reporter and cell culture-adaptive mutations. The ET cell line was grown in a 5% CO2 incubator at 37° C. in Dulbecco's modified essential media (DMEM) supplemented with 2 mM L-glutamine, nonessential amino acids, 100 U of penicillin/ml, 100 μg of streptomycin/mL, and 10% fetal bovine serum. G418 (Geneticin; Invitrogen) was added at a final concentration of 400 ug//mL.
All cell culture reagents were obtained from Invitrogen (Carlsbad). Cells were trypsinized (1% trypsin:EDTA) and plated out at 5×10^3 cells/well in white 96-well assay plates (Costar) dedicated to cell number (cytotoxicity) or antiviral activity assessments. Test compounds were added at six 3-fold concentrations each and the assay was run in DMEM, 5% FBS, 1% pen-strep, 1% glutamine, 1% non essential amino acid. Human interferon alpha-2b (PBL Biolabs, New Brunswick, N.J.) was included in each run as a positive control compound. Cells were processed 72 hr post test compound addition when the cells were still subconfluent. Antiviral activity was measured by analyzing replicon-derived luciferase activity using the Steady-Glo Luciferase Assay System (Promega, Madison, Wis.) according to manufacturer's instruction. The number of cells in each well was determined by Cell Titer Blue Assay (Promega). Compound profile was derived by calculating applicable EC50 (effective concentration inhibiting virus replication by 50%), EC90 (effective concentration inhibiting virus replication by 90%), IC50 (concentration decreasing cell viability by 50%) and SI50 (selective index: […]) values.

[5] = biological target: T4, R155K mutant of the HCV NS3/4A 1b protease enzyme (Hepatitis C virus genotype 1b, UniProt P26663, R1181K); assay: HCV Protease FRET Assay (IC50_APP), R155K mutant; assay type: biochemical; conditions: apparent IC50, R155K mutant; read-out: IC50_APP, HCV R155K
T4 construct: 10× stocks of NS3/4A protease enzyme from Bioenza (Mountain View, Calif.); purchased Bioenza (Mountain View, Calif.)
Protocol: as §1, §2, §3

C=CC1CC1(NC(=O)C1CC(n2nnc(-c3ccc(OC)cc3)n2)CN1C(=O)C(CCC(=O)C=C(C)C)NC(=O)OC(C)(C)C)C(=O)NS(=O)(=O)C1CC1 (centres unmarked) [Compound I-107]
IC50 [1]: 1000 to 10000 nM | IC50 [2]: < 10 nM | IC50 [3]: 10 to 100 nM | EC50 [4]: 100 to 1000 nM | IC50 [5]: 1000 to 10000 nM

C=CC(=O)NCC(NC(=O)OC(C)(C)C)C(=O)N1CC(n2nnc(-c3ccc(OC)cc3)n2)CC1C(=O)NC1(C(=O)NS(=O)(=O)C2CC2)CC1C=C (centres unmarked) [Compound I-108]
IC50 [1]: 1000 to 10000 nM | IC50 [2]: < 10 nM | IC50 [3]: 100 to 1000 nM | EC50 [4]: 100 to 1000 nM | IC50 [5]: 1000 to 10000 nM

C=CC(=O)NC[C@H](NC(=O)OC(C)(C)C)C(=O)N1C[C@H](Oc2nc3ccccc3nc2-c2cccs2)C[C@H]1C(=O)N[C@]1(C(=O)NS(=O)(=O)C2CC2)C[C@H]1C=C [Compound I-109]
IC50 [1]: 1000 to 10000 nM | IC50 [2]: < 10 nM | IC50 [3]: 100 to 1000 nM | EC50 [4]: 100 to 1000 nM | IC50 [5]: 100 to 1000 nM

C=C[C@@H]1C[C@]1(NC(=O)[C@@H]1C[C@@H](Oc2nc3ccccc3nc2-c2cccs2)CN1C(=O)[C@H](CCC(=O)C=C(C)C)NC(=O)OC(C)(C)C)C(=O)NS(=O)(=O)C1CC1 [Compound I-110]
IC50 [1]: 1000 to 10000 nM | IC50 [2]: < 10 nM | IC50 [3]: 10 to 100 nM | EC50 [4]: 10 to 100 nM | IC50 [5]: 100 to 1000 nM
